# Test results reported in patent US8193192B2, “Heterocyclic FXR binding compounds” (Phenex Pharmaceuticals AG, priority 2006, dated 2012).
# Experiments:
# [1] = PAMPA permeability assay; format: in vitro ADME; details: % of compound found in the receiver compartment after 16 hours; PBS pH 7.4, 5% DMSO, 23° C.
# Method: Artificial membrane permeability was determined as follows: Tested compounds were dissolved to 10 mM in 100% DMSO. Permeability of compounds was measured in PBS (pH 7.4), 5% DMSO at 23° C. Safire (Tecan) plate reader was used for measurement the UV/Vis absorption. Protocol: Dilute stocks of tested compounds and controls with PBS to 1.67 mM and mix well by pipetting, add 280 μl of PBS, 5% DMSO to acceptor plate, add 5 μl of 2% L-α-Phosphatidylcholine suspension in dodecane to the membrane of donor plate. Immediately add 98 μl of PBS to donor plate and make the sandwich with acceptor plate. Add 42 μl of tested compounds and controls dilutions to […], cover the plate, place into camera and incubate for 16 hours. Make the equilibrium plate, add 225 μl of PBS, 3.7% DMSO and 25 μl of tested compounds and controls dilutions to UV plate. After 16 hours pull the donor plate out and transfer 250 μl from acceptor plate to UV plate. Scan UV plate on Safire (Tecan) plate reader from […]. Permeability is reported in % of compound found in the receiver compartment after the incubation period. Applying this protocol, PAMPA permeabilities of examples and reference compounds were determined as follows (see Table 4): […]
PAMPA Permeability [1] [%],melting point [°C],Compound
32,–,"CC(C)c1onc(-c2c(Cl)cccc2Cl)c1COc1ccc(Oc2ccc(C(=O)O)cc2)cc1 [Compound A, reference compound]"
–,74 to 76,"Cc1cc(OCc2c(-c3c(Cl)cccc3Cl)noc2C(C)C)cnc1Oc1ccc(C(=O)O)cc1 [Example 3, 4-(5-((3-(2,6-Dichlorophenyl)-5-isopropylisoxazol-4-yl)methoxy)-3-methylpyridin-2-yloxy)benzoic acid]"
